Results published in BindingDB's records for doi:10.1021/jm9900016 (Universit&#224, 1999).

biological target: Thymidylate synthase (Lactobacillus casei); assay: In vitro inhibition of Lactobacillus casei Thymidylate synthase.

| Ki [nM] | Compound |
| --- | --- |
| 1900 | O=C1OC(c2ccc(O)c(Cl)c2)(c2ccc(O)c(Cl)c2)c2ccccc21 [3,3-Bis-(3-chloro-4-hydroxy-phenyl)-3H-isobenzofuran-1-one] |
| 1500 | O=C1OC(c2ccc(O)c(Cl)c2)(c2ccc(O)c(Cl)c2)c2cc3ccccc3cc21 [3,3-Bis-(3-chloro-4-hydroxy-phenyl)-3H-naphtho[2,3-c]furan-1-one] |
| 1500 | O=C1OC(c2ccc(O)c(F)c2)(c2ccc(O)c(F)c2)c2cc3ccccc3cc21 [3,3-Bis-(3-fluoro-4-hydroxy-phenyl)-3H-naphtho[2,3-c]furan-1-one] |
| 7000 | O=C1OC(c2ccc(O)cc2)(c2ccc(O)cc2)c2cc3ccccc3cc21 [3,3-Bis-(4-hydroxy-phenyl)-3H-naphtho[2,3-c]furan-1-one] |
| 250 | O=C1OC(O)(c2ccc(O)c(Cl)c2)c2ccc([N+](=O)[O-])c3cccc1c23 (stereo not drawn) [3-(3-Chloro-4-hydroxy-phenyl)-3-hydroxy-6-nitro-3H-benzo[de]isochromen-1-one] |
| 1500 | O=C1OC(c2ccc(O)cc2)(c2ccc(O)c3ccccc23)c2ccccc21 (stereo not drawn) [3-(4-Hydroxy-naphthalen-1-yl)-3-(4-hydroxy-phenyl)-3H-isobenzofuran-1-one] |
| 105000 | O=C1OC(O)(c2ccccc2O)c2cccc3cccc1c23 (stereo not drawn) [3-Hydroxy-3-(2-hydroxy-phenyl)-3H-benzo[de]isochromen-1-one] |
| 1500 | O=C1OC(c2ccc(O)cc2)(c2ccc(O)cc2)c2ccc3c4c(ccc1c24)CC3 [7,7-Bis-(4-hydroxy-phenyl)-2,7-dihydro-1H-6-oxa-cyclopenta[cd]phenalen-5-one] |
